Structures can show the parent of a compound that is named as a salt.
Legend:
Assay type in all cases: in vivo
souris = assay: Acute toxicity, oral administration in mice
Text: On a évalué les doses létales DLo des différents composés testés après administration par voie orale chez la souris.
On apelle DLo la dose maximale ne provoquant aucune mortalité en 8 jours.

[1] = test system: rats mâles de souche WISTAR; assay: Hypotensive activity in anaesthetised rats (carotid arterial pressure, intravenous administration); details: relative to initial control pressure
Description: A) Détermination de l'activité hypotensive L'activité hypotensive a été étudiée sur des rats mâles de souche WISTAR pensant 300 g environ et anesthésiés au nembutal (50 mg/kg par voie intraveineuse).
Le produit testé a été administré par voie intraveineuse dans la veine jugulaire.
La pression artérielle carotidienne a été mesurée avant et après administration du produit testé.
Le tableau ci-après indique les variations exprimées en pourcentage de la pression artérielle après administration du produit testé par rapport à la pression artérielle témoin initiale: […]

[2] = test system: rats mâles spontanément hypertendus (souche Okamoto); assay: Antihypertensive activity in spontaneously hypertensive rats (tail arterial pressure, oral administration); details: 1 mg/kg oral, relative to initial control pressure; for Variation % de la pression arterielle 1 heure après l'administration: 1 hour; for Variation % de la pression arterielle 4 heures après l'administration: 4 hours
Text: L'action antihypertensive a été étudiée sur des rats mâles spontanément hypertendus (souche Okamoto) âgés de 20 semaines pesant 300 à 320g.
Le produit a été administré par voie orale 48 heures après la pose d'un cathéter intracarotidien.
La pression artérielle a été mesurée à la queue du rat au moyen d'un manchon pneumatique et à l'aide d'un transducteur piezo-électrique de pression. La pression a été mesurée avant et une heure, quatre heures et vingt-quatre heures après l'administration du produit.
Le tableau ci-après indique les variations exprimées en pourcentages de la pression artérielle, après administration du produit, par rapport à la pression témoin initiale.

[3] = test system: ulcéres au niveau de l'estomac, par ligature du pylore; assay: Antiulcer activity, Shay technique (gastric ulcers induced by pylorus ligation); details: pylorus-ligated rats, about 16 hours after treatment
Text: La technique utilisée est décrite par SHAY et al dans Gastroenterology, 5, 43 (1945).
La technique de SHAY consiste à induire chez ez des rats des ulcéres au niveau de l'estomac, par ligature du pylore.
Les animaux sont anesthésiés à l'éther. Une incision longitudinale est faite 1 cm environ au-dessous du sternum, la partie glandulaire de l'estomac et le duodénum sont mis à jour et une ligature est posée quelques mm au-dessous du pylore. Le plan musculaire est laissé tel quel et la peau est suturée par deux agrafes.
Les animaux reçoivent aussitôt après le dispersif ou la substance à étudier, par voie buccale, sous un volume de 0,5 ml/100 g, et sont maintenus sans nourriture ni boisson, jusqu'au sacrifice par saignée carotidienne qui a lieu environ 16 heures après le traitement.
Avant de prélèver l'estomac, une ligature est possé au-dessus du cardia.
Le liquide gastrique est recueilli afin d'en mesure le pH.
L'estomac est ensuite ouvert selon la grande courbure, rincé dans le sérum physiologique et étalé sur du papier millimétrique pour être examiné sous la loupe binoculaire.
On évalue macroscopiquement la gravité des lésions qui est côtée de 0 à 4 pour chaque estomac.
On détermine pour chaque lot de rat, l'intensité moyenne des ulcérations et on calcule la protection en rapportant l'index moyen du groupe à l'index moyen du groupe témoin.
On détermine également les valeurs de pH du liquide gastrique pour les animaux traités et les animaux témoins.

[4] = oral, mice, maximal dose causing no mortality in 8 days
[5] = dose −0,1 mg/kg [sic], intravenous

## NCC(O)c1cccc2[nH]ccc12 (stereo not drawn) [Exemple 1, Fumaratede 1α-(aminométhyl)-1H-indole-4-méthanol]
souris; [4]
  DLo: >1000 mg/kg

## CNCC(O)c1cccc2[nH]ccc12 (centres unmarked) [Exemple 3, a-(méthylamino)méthyl-1 H-indole-4-méthanol]
[1]; 0,1 mg/kg intravenous
  Variation % de la pression arterielle 10 minutes après l'administration: −5%
[1]; [5]
  Variation % de la pression arterielle 1 minute après l'administration: +19%
  Variation % de la pression arterielle 5 minutes après l'administration: −4%
  Variation % de la pression arterielle 30 minutes après l'administration: −9%
souris; [4]
  DLo: 600 mg/kg

## CC(C)NCC(O)c1cccc2c1CCN2 (stereo not drawn) [Exemple 5, α-[[(1-méthyléthyl)amino]méthyl]2,3-dihydro-1H-indole-4-méthanol]
[1]; 0,1 mg/kg intravenous
  Variation % de la pression arterielle 1 minute après l'administration: −24%
  Variation % de la pression arterielle 5 minutes après l'administration: −28%
  Variation % de la pression arterielle 10 minutes après l'administration: −26%
  Variation % de la pression arterielle 30 minutes après l'administration: −22%
[1]; 1 mg/kg intravenous
  Variation % de la pression arterielle 1 minute après l'administration: −20%
  Variation % de la pression arterielle 5 minutes après l'administration: −19%
  Variation % de la pression arterielle 10 minutes après l'administration: −17%
  Variation % de la pression arterielle 30 minutes après l'administration: −14%
[2]
  Variation % de la pression arterielle 1 heure après l'administration: −27%
  Variation % de la pression arterielle 4 heures après l'administration: −24%
[2]; 24 hours
  Variation % de la pression arterielle 24 heures après l'administration: −17%
[3]; 0,4 mg/kg oral
  Ulcération % de protection par rapport aux témoins: 60%
[3]; 0,4 mg/kg oral, controls pH 2,2
  pH du liquide gastrique animaux traités: 2,5
[3]; 0,08 mg/kg oral
  Ulcération % de protection par rapport aux témoins: 66%
[3]; 0,08 mg/kg oral, controls pH 2,2
  pH du liquide gastrique animaux traités: 2,6
[3]; 2 mg/kg oral
  Ulcération % de protection par rapport aux témoins: 90%
[3]; 2 mg/kg oral, controls pH 2
  pH du liquide gastrique animaux traités: 2,6
souris; [4]
  DLo: 200 mg/kg

## CNCC(O)c1cccc2c1CCN2 (centres unmarked) [Exemple 6, a-(méthylamino)métyl-2,3-dihydro-1 H-indole-4-méthanol]
souris; [4]
  DLo: > 400 mg/kg

## OC(CNCc1ccccc1)c1cccc2[nH]ccc12 (centres unmarked) [Exemple 8, Oxalate acidede 1'a[[(phénylméthyl)amino]méthyl]-1 H-indole-4-méthanol]
[1]; 1 mg/kg intravenous
  Variation % de la pression arterielle 1 minute après l'administration: −9%
  Variation % de la pression arterielle 5 minutes après l'administration: −8%
  Variation % de la pression arterielle 10 minutes après l'administration: −6%
  Variation % de la pression arterielle 30 minutes après l'administration: −10%
[1]; 10 mg/kg intravenous
  Variation % de la pression arterielle 1 minute après l'administration: −38%
  Variation % de la pression arterielle 5 minutes après l'administration: −21%
  Variation % de la pression arterielle 10 minutes après l'administration: −21%
  Variation % de la pression arterielle 30 minutes après l'administration: −15%
souris; [4]
  DLo: 100 mg/kg

## OC(CNCCc1ccccc1)c1cccc2[nH]ccc12 (centres unmarked) [Exemple 9, Oxalate acidede 1'a-[[(2-phényléthyl)amino]méthyl]-1 H-indole-4-méthanol]
[1]; 1 mg/kg intravenous
  Variation % de la pression arterielle 1 minute après l'administration: −13%
  Variation % de la pression arterielle 5 minutes après l'administration: −11%
  Variation % de la pression arterielle 10 minutes après l'administration: −4%
  Variation % de la pression arterielle 30 minutes après l'administration: −3%
[1]; 10 mg/kg intravenous
  Variation % de la pression arterielle 1 minute après l'administration: −48%
  Variation % de la pression arterielle 5 minutes après l'administration: −44%
  Variation % de la pression arterielle 10 minutes après l'administration: −37%
  Variation % de la pression arterielle 30 minutes après l'administration: −33%
souris; mouse, in vivo, po, 11520 min
  DLo: 80 mg/kg

## OC(CNCC(O)c1cccc2[nH]ccc12)COc1ccccc1 (centres unmarked) [Exemple 10, a-[[(2-hydroxy-3-phénoxy-propyl)amino]méthyl]-1H-indole-4-méthanol]
[1]; 1 mg/kg intravenous
  Variation % de la pression arterielle 1 minute après l'administration: −32%
  Variation % de la pression arterielle 5 minutes après l'administration: −14%
  Variation % de la pression arterielle 10 minutes après l'administration: −15%
  Variation % de la pression arterielle 30 minutes après l'administration: −13%
souris; mouse, in vivo, po, 11520 min
  DLo: > 400 mg/kg

## CCCNCC(O)c1cccc2[nH]ccc12 (centres unmarked) [Exemple 11, Oxalatede 1'a[[(1-propyl)amino]méthyl]-1H-indole-4-méthanol]
[1]; 0,1 mg/kg intravenous
  Variation % de la pression arterielle 1 minute après l'administration: −11%
  Variation % de la pression arterielle 5 minutes après l'administration: −12%
  Variation % de la pression arterielle 10 minutes après l'administration: −12%
  Variation % de la pression arterielle 30 minutes après l'administration: −13%
[1]; 1 mg/kg intravenous
  Variation % de la pression arterielle 1 minute après l'administration: −22%
  Variation % de la pression arterielle 5 minutes après l'administration: −33%
  Variation % de la pression arterielle 10 minutes après l'administration: −33%
  Variation % de la pression arterielle 30 minutes après l'administration: −30%
[3]; 1 mg/kg oral
  Ulcération % de protection par rapport aux témoins: 48%
[3]; 1 mg/kg oral, controls pH 3,3
  pH du liquide gastrique animaux traités: 3,2
[3]; 5 mg/kg oral
  Ulcération % de protection par rapport aux témoins: 63%
[3]; 5 mg/kg oral, controls pH 3,0
  pH du liquide gastrique animaux traités: 2,9
souris; [4]
  DLo: 100 mg/kg

## Oxalate neutre de 1'a[[(1-méthyléthyl)amino]méthyl]-1H-indole-4-méthanol [Exemple 2]
[1]; 0,1 mg/kg intravenous
  Variation % de la pression arterielle 1 minute après l'administration: −36%
  Variation % de la pression arterielle 5 minutes après l'administration: −28%
  Variation % de la pression arterielle 10 minutes après l'administration: −30%
  Variation % de la pression arterielle 30 minutes après l'administration: −27%
[1]; 1 mg/kg intravenous
  Variation % de la pression arterielle 1 minute après l'administration: −41%
  Variation % de la pression arterielle 5 minutes après l'administration: −38%
  Variation % de la pression arterielle 10 minutes après l'administration: −29%
  Variation % de la pression arterielle 30 minutes après l'administration: −20%
[2]
  Variation % de la pression arterielle 1 heure après l'administration: −22%
  Variation % de la pression arterielle 4 heures après l'administration: −21%
souris; mouse, in vivo, po, 11520 min
  DLo: 200 mg/kg

## oxalate neutre de 1'a-[[(1-éthylpropyl)amino]méthyl]-1 H-indole-4-méthanol [Exemple 7]
[1]; 10 mg/kg intravenous
  Variation % de la pression arterielle 1 minute après l'administration: −59%
  Variation % de la pression arterielle 5 minutes après l'administration: −56%
  Variation % de la pression arterielle 10 minutes après l'administration: −50%
  Variation % de la pression arterielle 30 minutes après l'administration: −35%
souris; mouse, in vivo, po, 11520 min
  DLo: 80 mg/kg
